Where a name gives a salt, the structure may show the parent alone. Read-outs that look alike come from different tables or passages of the source.

Drawing on patent publication US9452980B2, “Substituted benzamides” (Hoffmann-La Roche Inc., priority 2009, dated 2016), this text covers Ki for 26 compounds.

Test [1] addresses mouse TAAR1 (Mus musculus (Mouse), UniProt Q923Y8). Description: Radioligand binding assay on mouse TAAR1. To be noted: read-out: Ki (μM) mouse. The gist of the method:
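Displacement of the tritiated oxazol-2-ylamine radioligand was measured by filtration and scintillation counting after 1 h incubation at 4 °C. Test concentrations ran 10 pM–10 μM in duplicate, with 10 μM cold ligand giving nonspecific binding. The receptor source was membranes of a stable mouse TAAR1 HEK293 line.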

Test [2] concerns the target rat TAAR1 (Rattus norvegicus (Rat), UniProt Q923Y9). Description: Radioligand binding assay on rat TAAR1. As to conditions: read-out: Ki (μM) rat. The gist of the method: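 Membranes from HEK293 cells stably expressing rat TAAR1, with Kd checked per batch by saturation. Competition with ³H-(S)-4-[(ethyl-phenyl-amino)-methyl]-4,5-dihydro-oxazol-2-ylamine, compounds 10 pM–10 μM in duplicate, 1 hr at 4 °C. Filtration then scintillation counting; nonspecific binding defined with 10 μM unlabeled ligand.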

Where [3] appears, read: mouse TAAR1, HEK-293 membranes, first value of cell mouse/rat.
Where [4] appears, read: rat TAAR1, HEK-293 membranes, second value of cell mouse/rat.

Sequence of mouse TAAR1 (Q923Y8 whole entry): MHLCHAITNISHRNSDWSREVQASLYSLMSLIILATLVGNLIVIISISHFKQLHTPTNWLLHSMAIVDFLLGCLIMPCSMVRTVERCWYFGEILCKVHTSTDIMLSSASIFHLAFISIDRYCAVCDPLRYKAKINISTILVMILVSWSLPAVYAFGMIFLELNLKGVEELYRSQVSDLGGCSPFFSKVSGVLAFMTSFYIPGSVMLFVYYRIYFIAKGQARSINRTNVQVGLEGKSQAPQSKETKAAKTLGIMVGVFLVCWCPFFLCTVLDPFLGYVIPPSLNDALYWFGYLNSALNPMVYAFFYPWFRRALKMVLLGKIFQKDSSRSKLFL
Sequence of rat TAAR1 (Q923Y9 whole entry): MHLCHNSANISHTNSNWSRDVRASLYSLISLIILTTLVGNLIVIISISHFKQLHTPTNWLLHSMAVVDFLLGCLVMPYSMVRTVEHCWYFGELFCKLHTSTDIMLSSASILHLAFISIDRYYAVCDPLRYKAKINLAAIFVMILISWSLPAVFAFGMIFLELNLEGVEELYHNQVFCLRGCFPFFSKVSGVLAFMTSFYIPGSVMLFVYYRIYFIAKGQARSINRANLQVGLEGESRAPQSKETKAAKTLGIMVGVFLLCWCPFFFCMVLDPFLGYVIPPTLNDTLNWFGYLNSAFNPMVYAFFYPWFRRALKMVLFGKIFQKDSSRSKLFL

As for `O=C(Nc1ccc(CCC2CCCNC2)cc1)c1ncc(F)cc1F` (racemic) [Example 135, (RS)-3,5-Difluoro-pyridine-2-carboxylic acid [4-(2-piperidin-3-yl-ethyl)-phenyl]-amide hydrochloride], the Ki (commonly the dissociation constant of the complex between target and ligand, obtained from inhibition or displacement) in test [1] (setting [3]) was determined as 1.27 µM; in test [2] (setting [4]), 0.0134 µM.

In the case of `O=C(Nc1ccc(CCC2CCCNC2)cc1)c1ccc(Cl)cc1` (racemic) [Example 110, (RS)-4-Chloro-N-[4-(2-piperidin-3-yl-ethyl)-phenyl]-benzamide hydrochloride], the Ki in test [1] (setting [3]) stood at 0.0021 µM; in test [2] (setting [4]), 0.0375 µM.

In the case of `O=C(Nc1ccc(C2CNCCO2)cc1)c1csc(-c2cnccn2)n1` (racemic) [Example 288, (RS)—N-(4-(Morpholin-2-yl)phenyl)-2-(pyrazin-2-yl)thiazole-4-carboxamide hydrochloride], the results for the Ki in test [1] and in test [2] (setting [4]) were 0.0278 µM and 0.0075 µM, respectively.

For the compound `O=C(Nc1ccc(C2CCCNC2)cc1)c1ccc(C(F)(F)F)cc1` (racemic) [Example 98, (RS)—N-(4-Piperidin-3-yl-phenyl)-4-trifluoromethyl-benzamide hydrochloride], the Ki in test [1] (setting [3]) was found to be 0.0041 µM; in test [2] (setting [4]), 0.0114 µM.

Take `O=C(Nc1ccc(C2CCNC2)cc1)c1ccc(Cl)cc1` (racemic) [Example 16, (RS)-4-Chloro-N-(4-pyrrolidin-3-yl-phenyl)-benzamide hydrochloride]: the Ki amounted to 0.0007 µM in test [1] (setting [3]) and 0.0043 µM in test [2] (setting [4]).

`O=C(Nc1ccc(C2CCCNC2)cc1)c1ccc(Cl)cn1` (racemic) [Example 78, (RS)-5-Chloro-pyridine-2-carboxylic acid (4-piperidin-3-yl-phenyl)-amide hydrochloride]: the Ki was 0.0067 µM in test [1] (setting [3]) and 0.0466 µM in test [2] (setting [4]).

For the compound `C[C@H]1CO[C@@H](c2ccc(NC(=O)c3cccc(Cl)c3)cc2)CN1` [Example 322, 3-Chloro-N-[4-((2S,5S)-5-methyl-morpholin-2-yl)-phenyl]-benzamide hydrochloride], the Ki in test [1] was determined as 0.0188 µM; in test [2], 0.0017 µM.

Take `CCOc1cc(C(=O)Nc2ccc(C3CNCCO3)cc2)ccn1` (racemic) [Example 300, (RS)-2-Ethoxy-N-(4-(morpholin-2-yl)phenyl)isonicotinamide hydrochloride]: the Ki in test [1] (setting [3]) came to 0.0726 µM; in test [2] (setting [4]) it was 0.002 µM.

On to `O=C(Nc1cccc(C2CNCCO2)c1)c1ccc(Cl)cc1` (racemic) [Example 72, (RS)-4-Chloro-N-(3-morpholin-2-yl-phenyl)-benzamide hydrochloride], for which the figures for the Ki in test [1] (setting [3]) and in test [2] (setting [4]) were 0.507 µM and 0.107 µM, respectively.

Turning to `O=C(Nc1ccc(CCC2CCCCN2)cc1)c1ccc(C(F)(F)F)cc1` (racemic) [Example 175, (RS)—N-(4-(2-(Piperidin-2-yl)ethyl)phenyl)-4-(trifluoromethyl)benzamide hydrochloride], the results for the Ki in test [1] (setting [3]) and in test [2] (setting [4]) were 0.0473 µM and 0.0027 µM, respectively.

For the compound `O=C(NCc1ccc([C@@H]2CNCCO2)cc1)c1cccc(Cl)c1` [Example 313, (R)-3-Chloro-N-(4-(morpholin-2-yl)benzyl)benzamide hydrochloride], the Ki was determined as 0.547 µM in test [1] (setting [3]) and 0.0154 µM in test [2] (setting [4]).

Turning to `O=C(Nc1ccc(CCC2CCCNC2)cc1)Nc1ccc(Cl)cn1` (racemic) [Example 115, (RS)-1-(5-Chloro-pyridin-2-yl)-3-[4-(2-piperidin-3-yl-ethyl)-phenyl]-urea hydrochloride], the figures for the Ki in test [1] (setting [3]) and in test [2] (setting [4]) were 0.32 µM and 0.0118 µM, respectively.

Turning to `COc1cccc(CC(=O)Nc2ccc(C3CCNC3)cc2)c1` (racemic) [Example 65, (RS)-2-(3-Methoxy-phenyl)-N-(4-pyrrolidin-3-yl-phenyl)-acetamide hydrochloride], the Ki in test [1] (setting [3]) came out at 0.125 µM; in test [2] (setting [4]) it was 0.352 µM.

On to `O=C(Nc1ccc(C2CCCNC2)cc1)c1ccc(Cl)cc1F` (racemic) [Example 100, (RS)-4-Chloro-2-fluoro-N-(4-piperidin-3-yl-phenyl)-benzamide hydrochloride], for which the Ki amounted to 0.0036 µM in test [1] (setting [3]) and 0.0308 µM in test [2] (setting [4]).

Turning to `CSc1ccc(C(=O)Nc2ccc(C3CNCCO3)cc2)cc1` (racemic) [Example 216, (RS)-4-(Methylthio)-N-(4-(morpholin-2-yl)phenyl)benzamide hydrochloride], the Ki was determined as 0.0176 µM in test [1] (setting [3]) and 0.0012 µM in test [2].

On to `O=C(Nc1ccc(C2CNCCO2)cc1)c1ccc(Cl)cc1F` (racemic) [Example 146, (RS)-4-Chloro-2-fluoro-N-(4-morpholin-2-yl-phenyl)-benzamide hydrochloride], for which the Ki in test [1] amounted to 0.0268 µM; in test [2] (setting [4]) it was 0.001 µM.

With `Cc1ccc(C(=O)Nc2ccc([C@H]3CCCNC3)cc2)cn1` [Example 264, (R)-6-Methyl-N-(4-(piperidin-3-yl)phenyl)nicotinamide hydrochloride], the Ki worked out at 0.297 µM in test [1] (setting [3]) and 0.0143 µM in test [2] (setting [4]).

As for `CO[C@H]1CC[C@@H](C(=O)Nc2ccc(C3CNCCO3)cc2)CC1` (mixture of isomers) [Example 254, cis-(RS)-4-Methoxy-N-(4-(morpholin-2-yl)phenyl)cyclohexanecarboxamide hydrochloride], the Ki in test [1] (setting [3]) stood at 2.82 µM; in test [2] (setting [4]), 0.726 µM.

On to `O=C(Nc1ccc(C2CNCCO2)cc1)Nc1ccc(Cl)nc1` (racemic) [Example 302, (RS)-1-(6-Chloropyridin-3-yl)-3-(4-(morpholin-2-yl)phenyl)urea hydrochloride], for which the inhibitory constant (Ki) in test [1] (setting [3]) is 0.0574 µM; in test [2] (setting [4]), 0.0056 µM.

On to `O=C(Nc1ccc(C2CCCNC2)cc1)Nc1ccc(Cl)cn1` (racemic) [Example 83, (RS)-1-(5-Chloro-pyridin-2-yl)-3-(4-piperidin-3-yl-phenyl)-urea hydrochloride], for which the figures for the Ki in test [1] (setting [3]) and in test [2] (setting [4]) were 0.002 µM and 0.012 µM, respectively.

On to `O=C(Nc1ccc(CCC2CCNC2)cc1)Nc1ccc(Cl)cn1` (racemic) [Example 114, (RS)-1-(5-Chloro-pyridin-2-yl)-3-[4-(2-pyrrolidin-3-yl-ethyl)-phenyl]-urea hydrochloride], for which the results for the Ki in test [1] (setting [3]) and in test [2] (setting [4]) were 0.0836 µM and 0.0074 µM, respectively.

As to `CCOc1ccc(C(=O)Nc2ccc([C@@H]3CNCCO3)cc2)cc1` [Example 275, (R)-4-Ethoxy-N-(4-(morpholin-2-yl)phenyl)benzamide hydrochloride], the Ki in test [1] (setting [3]) amounted to 0.0082 µM; in test [2] it was 0.0036 µM.

Regarding `O=C(Nc1ccc(C2CCNC2)cc1)OCCc1ccc(Cl)cc1` (racemic) [Example 120, (RS)-(4-Pyrrolidin-3-yl-phenyl)-carbamic acid 2-(4-chloro-phenyl)-ethyl ester], the Ki in test [1] (setting [3]) is 0.0004 µM; in test [2] (setting [4]), 0.0013 µM.

Take `O=C(Nc1ccc([C@@H]2CNCCO2)cc1)c1ccc(Cl)cc1F` [Example 229, (R)-4-Chloro-2-fluoro-N-(4-(morpholin-2-yl)phenyl)benzamide hydrochloride]: the Ki in test [1] was 0.0218 µM; in test [2] (setting [4]), 0.0019 µM.

`O=C(Nc1ccc(CCC2CCCCN2)cc1)c1cnc(Cl)cn1` (racemic) [Example 174, (RS)-5-Chloro-N-(4-(2-(piperidin-2-yl)ethyl)phenyl)pyrazine-2-carboxamide hydrochloride]: the Ki in test [1] (setting [3]) stood at 0.437 µM; in test [2] (setting [4]), 0.0159 µM.

On to `O=C(Nc1ccc(CCC2CCCN2)cc1)c1cccc(Cl)c1` (racemic) [Example 157, (RS)-3-Chloro-N-[4-(2-pyrrolidin-2-yl-ethyl)-phenyl]-benzamide], for which the Ki in test [1] (setting [3]) was 0.142 µM; in test [2] (setting [4]), 0.0007 µM.
